Test results from the supplement of paper PMC11061612.

Tests used:
[1] = system: SK-ES-1 (Ewing's Sarcoma); test: Bliss excess, mean over the matrix (fraction); higher = more synergy
In short: (§1)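 After 24 hours at 37°C and 5% CO2 in 1536-well plates, cells in DMEM/F12 or RPMI plus 10% FBS received two-drug dose matrices for 72 hours. Viability came from CellTiter-Glo 2.0 luminescence and was scaled as inhibition, anchored at 0 by vehicle wells and at 1 by blank wells. Combination Emax is taken as the second-highest inhibition in the matrix, and Bliss excess as the observed combination effect less EA + EB − EA·EB, with EA and EB the single-agent effects.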

[2] = system: TE-9 (Esophageal Squamous Cell Carcinoma); test: as above
In short: as §1

KELLY (Neuroblastoma) = test: as above
In short: as §1

AGS (Gastric Carcinoma) [3] = test: as above
In short: as §1

[4] = system: MDA-MB-361 (Breast Carcinoma); test: as above
In short: as §1

[5] = system: MFE-296 (Endometrial Carcinoma); test: as above
In short: as §1

[6] = system: KP-1N (Pancreatic Carcinoma); test: combination Emax (second highest fraction inhibited in the dose matrix, 72 h); higher = more inhibition; extreme values may be limits of the assay
In short: as §1

NOS-1 (Osteosarcoma) = test: as above
In short: as §1

[7] = system: Calu-3 (Lung Adenocarcinoma); test: as above
In short: as §1

[8] = system: B-CPAP (Thyroid Gland Carcinoma); test: as above
In short: as §1

[9] = system: LU-135 (Small Cell Lung Carcinoma); test: as above
In short: as §1

[10] = system: HuP-T4 (Pancreatic Carcinoma); test: as above
In short: as §1

[11] = system: TE-15 (Esophageal Squamous Cell Carcinoma); test: as above
In short: as §1

[12] = system: LS-180 (Colorectal Carcinoma); test: as above
In short: as §1

[13] = system: EC-GI-10 (Esophageal Squamous Cell Carcinoma); test: as above
In short: as §1

[14] = system: SNU-5 (Gastric Carcinoma); test: as above
In short: as §1

AGS (Gastric Carcinoma) [15] = test: as above
In short: as §1

[16] = system: COLO-205 (Colorectal Carcinoma); test: as above
In short: as §1

[17] = system: MDA-MB-361 (Breast Carcinoma); test: as above
In short: as §1

[18] = system: MFE-296 (Endometrial Carcinoma); test: as above
In short: as §1
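Wherever Bliss excess, mean over the matrix is given: after 72 h of two-drug dosing.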

SMILES	Bliss excess [1]	Bliss excess [2]	Bliss excess (KELLY (Neuroblastoma))	Bliss excess (AGS (Gastric Carcinoma) [3])	Bliss excess [4]	Bliss excess [5]	combination Emax [6]	combination Emax (NOS-1 (Osteosarcoma))	combination Emax [7]	combination Emax [8]	combination Emax [9]	combination Emax [10]	combination Emax [11]	combination Emax [12]	combination Emax [13]	combination Emax [14]	combination Emax (AGS (Gastric Carcinoma) [15])	combination Emax [16]	combination Emax [17]	combination Emax [18]
COc1nnc2ccc(N3CCC(c4ccc(OCCN5CCN(C)C(=O)[C@H]5C)cc4)CC3)nn12 [AZD5153] + CCN(CCO)CCCOc1ccc2c(Nc3cc(CC(=O)Nc4cccc(F)c4)[nH]n3)ncnc2c1 [AZD2811] (first compound max 1 µM, 7x7, partner max 1 µM)	-0.0695	-0.0096	-0.0406	0.0294	-0.0448	-0.0264	0.542	0.765	0.635	0.645	1	0.542	0.486	0.617	0.425	0.506	0.936	0.869	0.49	0.333
COc1nnc2ccc(N3CCC(c4ccc(OCCN5CCN(C)C(=O)[C@H]5C)cc4)CC3)nn12 [AZD5153] + C[C@@H]1COCCN1C2=NC(=NC(=C2)C3(CC3)[S@](=N)(=O)C)C4=C5C=CNC5=NC=C4 [AZD6738] (first compound max 1 µM, 7x7, partner max 10 µM)	0.0023	0.0039	-0.0107	0.0381	-0.0172	0.0129	0.69	0.887	0.719	0.72	1	0.626	0.889	0.767	0.604	0.913	0.959	0.83	0.82	0.74
COc1nnc2ccc(N3CCC(c4ccc(OCCN5CCN(C)C(=O)[C@H]5C)cc4)CC3)nn12 [AZD5153] + Cc1c2c(nn1C)CSCc1cc(n(C)n1)CSc1cc(c3ccccc3c1)OCCCc1c(C(=O)O)n(C)c3c-2c(Cl)ccc13 [AZD5991] (first compound max 1 µM, 7x7, partner max 1 µM)	0.0048	-0.007	0.0357	-0.0166	-0.0406	0.028	0.582	1	0.677	0.706	0.994	0.606	0.627	0.585	0.671	0.561	0.851	0.79	0.865	0.878
COc1nnc2ccc(N3CCC(c4ccc(OCCN5CCN(C)C(=O)[C@H]5C)cc4)CC3)nn12 [AZD5153] + Cn1cnc2c(F)c(Nc3ccc(Br)cc3Cl)c(C(=O)NOCCO)cc21 [Selumetinib] (first compound max 1 µM, 7x7, partner max 10 µM)	-0.0188	-0.0161	0.13	0.0163	0.0073	-0.0519	0.563	0.894	0.887	0.603	0.948	0.814	0.743	0.828	0.526	0.582	0.999	1	0.642	0.356
Cc1c2c(nn1C)CSCc1cc(n(C)n1)CSc1cc(c3ccccc3c1)OCCCc1c(C(=O)O)n(C)c3c-2c(Cl)ccc13 [AZD5991] + C=CCn1c(=O)c2cnc(Nc3ccc(N4CCN(C)CC4)cc3)nc2n1-c1cccc(C(C)(C)O)n1 [AZD1775] (first compound max 1 µM, partner max 1 µM)	-0.0008	0.0286	0.0322	-0.0145	-0.052	-0.0025	0.458	0.982	0.197	0.467	0.581	0.551	0.548	0.47	0.946	0.565	0.781	0.684	0.899	0.585
Cc1c2c(nn1C)CSCc1cc(n(C)n1)CSc1cc(c3ccccc3c1)OCCCc1c(C(=O)O)n(C)c3c-2c(Cl)ccc13 [AZD5991] + CC1(C)CCC(CN2CCN(c3ccc(C(=O)NS(=O)(=O)c4ccc(NCC5CCOCC5)c([N+](=O)[O-])c4)c(Oc4cnc5[nH]ccc5c4)c3)CC2)=C(c2ccc(Cl)cc2)C1 [Venetoclax] (first compound max 1 µM, 7x7, partner max 1 µM)	0.167	0.0041	0.249	0.0132	0.0194	-0.002	0.119	0.889	0.135	0.18	0.478	0.409	0.173	0.191	0.448	0.147	0.665	0.135	0.889	0.593
Cc1c2c(nn1C)CSCc1cc(n(C)n1)CSc1cc(c3ccccc3c1)OCCCc1c(C(=O)O)n(C)c3c-2c(Cl)ccc13 [AZD5991] + CCN(CCO)CCCOc1ccc2c(Nc3cc(CC(=O)Nc4cccc(F)c4)[nH]n3)ncnc2c1 [AZD2811] (first compound max 1 µM, 7x7, partner max 1 µM)	0.0028	-0.0235	0.0071	0.0374	0.0399	0.0533	0.234	0.809	0.17	0.313	0.906	0.624	0.826	0.342	0.891	0.204	0.51	0.948	0.913	0.45
Cc1c2c(nn1C)CSCc1cc(n(C)n1)CSc1cc(c3ccccc3c1)OCCCc1c(C(=O)O)n(C)c3c-2c(Cl)ccc13 [AZD5991] + CN(C)CCCOc1ccc(-c2ccc3ncc4c(c3c2)n(C2CCOCC2)c(=O)n4C)cn1 [AZD0156] (first compound max 1 µM, 7x7, partner max 1 µM)	-0.004	-0.0529	-0.0469	-0.0258	-0.016	0.0092	0.229	0.753	0.15	0.237	0.286	0.779	0.188	0.196	0.747	0.255	0.255	0.725	0.791	0.287
Cc1c2c(nn1C)CSCc1cc(n(C)n1)CSc1cc(c3ccccc3c1)OCCCc1c(C(=O)O)n(C)c3c-2c(Cl)ccc13 [AZD5991] + C[C@@H]1COCCN1C2=NC(=NC(=C2)C3(CC3)[S@](=N)(=O)C)C4=C5C=CNC5=NC=C4 [AZD6738] (first compound max 1 µM, 7x7, partner max 10 µM)	0.017	-0.0039	0.0647	0.0629	0.0182	0.0723	0.279	1	0.275	0.522	0.736	0.51	0.736	0.707	0.819	0.942	0.821	0.511	0.962	0.791
Cc1c2c(nn1C)CSCc1cc(n(C)n1)CSc1cc(c3ccccc3c1)OCCCc1c(C(=O)O)n(C)c3c-2c(Cl)ccc13 [AZD5991] + Cc1cc2ncnn2cc1Nc1ncc2c(n1)n(C1CCOCC1)c(=O)n2C [AZD7648] (first compound max 1 µM, 7x7, partner max 10 µM)	0.0001	0.0162	-0.0368	-0.037	-0.0344	-0.0101	0.279	0.895	0.201	0.365	0.279	0.325	0.235	0.256	0.564	0.347	0.233	0.298	0.816	0.267
Cc1c2c(nn1C)CSCc1cc(n(C)n1)CSc1cc(c3ccccc3c1)OCCCc1c(C(=O)O)n(C)c3c-2c(Cl)ccc13 [AZD5991] + Cn1cnc2c(F)c(Nc3ccc(Br)cc3Cl)c(C(=O)NOCCO)cc21 [Selumetinib] (first compound max 1 µM, 7x7, partner max 3 µM)	-0.0186	-0.0097	0.0281	0.186	-0.0168	0.0234	0.189	0.895	0.121	0.299	0.22	0.957	0.317	0.589	0.758	0.495	0.964	0.828	0.816	0.256
C[C@@H]1COCCN1c1cc(C2([S@](C)(=N)=O)CC2)nc(-c2ccnc3[nH]ccc23)n1 [AZD6738] + O=C(c1cc(Cc2n[nH]c(=O)c3ccccc23)ccc1F)N1CCN(C(=O)C2CC2)CC1 [Olaparib] (first compound max 10 µM, 7x7, partner max 10 µM)	0.0804	0.0403	0.0227	-0.0108	-0.0376	0.029	0.425	0.326	0.193	0.498	0.604	0.331	0.738	0.733	0.747	0.909	0.604	0.301	0.836	0.391
Cc1cc2ncnn2cc1Nc1ncc2c(n1)n(C1CCOCC1)c(=O)n2C [AZD7648] + C=CCn1c(=O)c2cnc(Nc3ccc(N4CCN(C)CC4)cc3)nc2n1-c1cccc(C(C)(C)O)n1 [AZD1775] (first compound max 10 µM, partner max 1 µM)	0.0322	0.0148	0.015	-0.0152	-0.0854	-0.0096	0.349	0.432	0.242	0.479	0.56	0.288	0.565	0.5	0.78	0.558	0.736	0.678	0.824	0.295
